Experimental data from US20250339531A1, “DUX4 POLYPEPTIDES AND NUCLEIC ACIDS FOR TREATING INFLAMMATORY AND AUTOIMMUNE CONDITIONS” (Fred Hutchinson Cancer Center, priority 2021, published 2025).
“Also recorded” adds a separate entry of the source.

Assays:
[1] = test system: HLA-A, HLA-B, HLA-C, PSMB8, PSMB9, PSMB10 mRNA nuclear export; experiment: Subcellular fractionation of nuclear and cytoplasmic mRNAs and proteins; assay type: cell-based, human; conditions: DUX4 pulse, IFNG, 44 hours, data not shown
Method: MB135iDUX4 myoblasts were pulsed with doxycycline for 4 hours, incubated for 24 hours, supplemented with 50 ng/mL IFNG for 16 hours, and harvested at a terminal time point of 44 hours. Samples divided for whole-cell lysate (WCL) and subcellular fractionation were suspended in 300 μL ice-cold Cyto-lysis buffer (10 mM Tris pH 7.4, 10 mM NaCl, 0.2% NP-40, 1 mM DTT in nuclease free water). Subcellular fractionation samples were centrifuged at 650 RCF to pellet nuclei while cytoplasmic lysate remained in the supernatant. WCL, cytoplasmic, nuclear RNA and protein were harvested for RT-qPCR and immunoblotting, respectively.

[2] = test system: in vitro translated STAT1; experiment: In vitro translation and anti-FLAG immunoprecipitation; assay type: binding; conditions: rabbit reticulocyte lysate proteins, ± JAK1 kinase; listed as DUX4-CTD
Method: In vitro translated proteins were prepared using the TnT Quick Coupled Transcription Translation System (Promega, L2080) for the SP6 promoter on the pCS2-3×MYC-STAT1, pCS2-3×MYC-STAT1-S727E, pCS2-3×FLAG-DUX4aa154-424, and pCS2-3×FLAG-DUXB plasmids. To phosphorylate the 3×MYC-STAT1 and 3×MYC-STAT1-S727E proteins at Y701, 20 μL of the TnT reaction was mixed with 8 μL of 5× Kinase Buffer A (ThermoFisher, Cat #PV3189), 4 uL 10 mM ATP (ThermoFisher, Cat #PV3227), 0.4 ug recombinant JAK1 kinase (ThermoFisher, Cat #PV4774), and then nuclease-free ddH2O to a final volume of 40 μL and incubated for 1 hour at 30° C. The same procedure was used for treatment of 3×FLAG-DUX4-CTD with JAK1 kinase. For IPs, the in vitro translated proteins were mixed and incubated for 15 minutes in a 37° C. water bath. 0.3 mL of ice-cold in vitro IP buffer [20 mM Tris-HCl pH 7.5, 137 mM NaCl, 1 mM EDTA, 0.1% Tween20, 5% glycerol, adjusted to pH 7.4] was added to each sample and then 50 μL of Dynabeads Protein G bound to mouse IgG1 anti-FLAG [M2] (F3165) and incubated for 3 hours at 4° C. with gentle rotation. After immunoprecipitation of FLAG-tagged constructs, each sample was washed 3 times with 1 mL of ice-cold in vitro IP buffer in a 4° C. room. […]

[3] = test system: STAT1 binding to ISG promoters (GBP1, IDO1, CXCL10); experiment: STAT1 chromatin immunoprecipitation (ChIP-qPCR) at ISG promoters; assay type: cell-based, human; conditions: MB135-iDUX4-CTD cells, IFNG ± doxycycline
Method: Chromatin immunoprecipitation (ChIP) was performed as previously described (Nelson et al 2006) with the following modifications: Cells were plated and allowed to grow to 70-80% confluence. Pelleted nuclei were sonicated on a Diagenode Biruptor on “Low” for 10 min as 30 sec on/30 sec off, followed by 6 rounds of sonication on “High” for 10 min each as 30 sec on/30 sec off (70 minutes total sonication) in IP Buffer+0.5% SDS. For immunoprecipitation, 500 ng of chromatin was set aside per condition as an “Input” and 4 μg of antibody was added to 10 μg of chromatin in an equal volume of IP Buffer+0.5% SDS across samples. IP Buffer (150 mM NaCl, 50 mM Tris-HCl pH 7.4, 5 mM EDTA, 1% Triton X-100, 0.5% NP-40, +Roche complete mini protease inhibitor EDTA-free) was added to lower the percentage of SDS <0.1%, and tubes were incubated with rotation overnight at 4° C. During this time, protein-A agarose Fastflow beads (Millipore) were washed twice with IP Buffer and then blocked in IP Buffer containing 2% BSA by rotating overnight at 4° C. After clearing the chromatin as described, beads were aliquoted to fresh tubes and the top 90% of chromatin was transferred to the tubes containing the blocked bead slurry. Tubes were rotated for 1 hour at 4° C. […]

Row | Substance | mRNA nuclear export and protein localization to the cytoplasm [1] | interaction with in vitro translated STAT1 [2] | STAT1 occupancy at ISG promoters [3]
1 | DUX4: human DUX4 protein SEQ ID NO:3 expressed from doxycycline inducible codon altered transgene SEQ ID NO:2 | did not disrupt | – | –
2 | longCTD: 3×FLAG tag and nls in frame with carboxyterminal 271 amino acids of DUX4 (aa154-424), SEQ ID NOS: 8-9 | – | did not interact with in vitro translated STAT1; also recorded: does not co-immunoprecipitate with in vitro translated/phosphorylated STAT1 | diminished STAT1 occupancy at all three ISGs; also recorded: moderately decreases STAT1 occupancy at ISG promoters
